Each block holds one compound with its values, some of them ahead of it.
Experiments:
[1] = target: 3',5'-cyclic-AMP phosphodiesterase 4B (Homo sapiens, UniProt Q07343); assay: Inhibition of human recombinant PDE4B1 using […] as substrate preincubated with compound for 15 mins followed by substrate addition and measured after 30 mins by spectrofluorimetric analysis
Phosphodiesterase 4 = Phosphodiesterase 4 (Homo sapiens, UniProt P27815+Q08499+Q07343+Q08493); assay: Inhibition of PDE4 (unknown origin); assay type: protein assay
Histone deacetylase 1 = Histone deacetylase 1 (Homo sapiens, UniProt Q13547); assay: Inhibition of HDAC1 (unknown origin)
Acetylcholinesterase = Acetylcholinesterase (Homo sapiens, UniProt P22303); assay: Inhibition of AChE (unknown origin) using acetylthiocholine iodide as substrate by Ellman's method
Chain of Acetylcholinesterase (P22303 whole entry): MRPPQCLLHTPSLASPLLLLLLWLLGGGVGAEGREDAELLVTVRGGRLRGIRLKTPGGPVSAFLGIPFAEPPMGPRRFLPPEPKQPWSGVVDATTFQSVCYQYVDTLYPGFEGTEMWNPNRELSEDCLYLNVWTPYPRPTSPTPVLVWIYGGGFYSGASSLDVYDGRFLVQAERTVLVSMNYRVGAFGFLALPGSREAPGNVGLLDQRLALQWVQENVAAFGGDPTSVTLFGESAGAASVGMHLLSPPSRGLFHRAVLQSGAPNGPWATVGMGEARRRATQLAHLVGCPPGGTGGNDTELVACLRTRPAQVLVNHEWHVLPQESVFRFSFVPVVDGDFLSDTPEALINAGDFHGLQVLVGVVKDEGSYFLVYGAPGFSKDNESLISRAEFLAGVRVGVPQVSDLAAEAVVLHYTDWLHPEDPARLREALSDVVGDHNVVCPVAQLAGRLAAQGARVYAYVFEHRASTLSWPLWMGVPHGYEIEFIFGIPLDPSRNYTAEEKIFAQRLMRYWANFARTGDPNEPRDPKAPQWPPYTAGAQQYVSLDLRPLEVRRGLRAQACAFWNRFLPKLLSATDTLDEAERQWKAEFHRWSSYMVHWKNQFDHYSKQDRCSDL

[2] = target: T1, cGMP-specific 3',5'-cyclic phosphodiesterase (Homo sapiens, UniProt O76074); assay: Inhibition of PDE5A (unknown origin)
[3] = target: High affinity 3',5'-cyclic-AMP phosphodiesterase 7A (Homo sapiens, UniProt Q13946); assay: Inhibition of PDE7A (unknown origin)
Chain of High affinity 3',5'-cyclic-AMP phosphodiesterase 7A (Q13946 whole entry): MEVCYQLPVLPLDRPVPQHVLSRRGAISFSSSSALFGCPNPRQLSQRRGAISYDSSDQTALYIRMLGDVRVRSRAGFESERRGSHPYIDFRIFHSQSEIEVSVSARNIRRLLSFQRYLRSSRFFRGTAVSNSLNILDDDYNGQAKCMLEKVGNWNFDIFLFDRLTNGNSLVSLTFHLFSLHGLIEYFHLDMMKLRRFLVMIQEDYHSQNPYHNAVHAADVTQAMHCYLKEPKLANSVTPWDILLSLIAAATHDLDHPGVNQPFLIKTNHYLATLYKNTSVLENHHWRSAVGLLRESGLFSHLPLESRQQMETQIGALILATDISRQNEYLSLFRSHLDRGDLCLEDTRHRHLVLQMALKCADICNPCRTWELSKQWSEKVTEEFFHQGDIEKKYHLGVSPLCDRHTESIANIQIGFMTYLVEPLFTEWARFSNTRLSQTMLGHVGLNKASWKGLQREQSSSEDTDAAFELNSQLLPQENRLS

[4] = target: 3',5'-cyclic-AMP phosphodiesterase 7B (Homo sapiens, UniProt Q9NP56); assay: Inhibition of PDE7B (unknown origin)
[5] = target: T2, cAMP and cAMP-inhibited cGMP 3',5'-cyclic phosphodiesterase 10A (Homo sapiens, UniProt Q9Y233); assay: Inhibition of his-tagged recombinant human PDE10A catalytic domain extracted from Escherichia coli BL21(DE3) using [3H]-cAMP as substrate incubated for 10 mins by SPA assay
[6] = target: T3, High affinity cGMP-specific 3',5'-cyclic phosphodiesterase 9A (Homo sapiens, UniProt O76083); assay: Inhibition of PDE9A (unknown origin)
T3 sequence (O76083 whole entry): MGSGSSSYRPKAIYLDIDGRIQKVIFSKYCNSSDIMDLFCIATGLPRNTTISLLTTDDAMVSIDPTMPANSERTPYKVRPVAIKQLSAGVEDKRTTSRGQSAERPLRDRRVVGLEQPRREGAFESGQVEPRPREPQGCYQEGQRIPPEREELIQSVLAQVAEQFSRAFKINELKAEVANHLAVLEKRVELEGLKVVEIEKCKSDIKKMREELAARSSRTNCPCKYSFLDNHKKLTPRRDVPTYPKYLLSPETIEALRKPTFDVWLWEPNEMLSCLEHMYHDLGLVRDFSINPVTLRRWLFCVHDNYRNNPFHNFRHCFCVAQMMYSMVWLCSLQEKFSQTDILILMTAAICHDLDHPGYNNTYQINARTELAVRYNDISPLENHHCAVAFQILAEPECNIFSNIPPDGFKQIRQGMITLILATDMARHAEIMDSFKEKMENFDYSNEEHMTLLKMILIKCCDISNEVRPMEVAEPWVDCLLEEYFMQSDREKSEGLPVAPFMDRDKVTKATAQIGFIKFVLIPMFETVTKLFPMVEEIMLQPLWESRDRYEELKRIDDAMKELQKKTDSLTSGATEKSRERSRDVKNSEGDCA

[7] = Inhibition of PDE1 (unknown origin); set-up: species or system Homo sapiens
[8] = target: T2, cAMP and cAMP-inhibited cGMP 3',5'-cyclic phosphodiesterase 10A; assay: Inhibition of PDE10A (unknown origin)
[9] = target: cGMP-dependent 3',5'-cyclic phosphodiesterase (Homo sapiens, UniProt O00408); assay: Inhibition of PDE2A (unknown origin) using 3H-cGMP as substrate
Chain of cGMP-dependent 3',5'-cyclic phosphodiesterase (O00408 whole entry): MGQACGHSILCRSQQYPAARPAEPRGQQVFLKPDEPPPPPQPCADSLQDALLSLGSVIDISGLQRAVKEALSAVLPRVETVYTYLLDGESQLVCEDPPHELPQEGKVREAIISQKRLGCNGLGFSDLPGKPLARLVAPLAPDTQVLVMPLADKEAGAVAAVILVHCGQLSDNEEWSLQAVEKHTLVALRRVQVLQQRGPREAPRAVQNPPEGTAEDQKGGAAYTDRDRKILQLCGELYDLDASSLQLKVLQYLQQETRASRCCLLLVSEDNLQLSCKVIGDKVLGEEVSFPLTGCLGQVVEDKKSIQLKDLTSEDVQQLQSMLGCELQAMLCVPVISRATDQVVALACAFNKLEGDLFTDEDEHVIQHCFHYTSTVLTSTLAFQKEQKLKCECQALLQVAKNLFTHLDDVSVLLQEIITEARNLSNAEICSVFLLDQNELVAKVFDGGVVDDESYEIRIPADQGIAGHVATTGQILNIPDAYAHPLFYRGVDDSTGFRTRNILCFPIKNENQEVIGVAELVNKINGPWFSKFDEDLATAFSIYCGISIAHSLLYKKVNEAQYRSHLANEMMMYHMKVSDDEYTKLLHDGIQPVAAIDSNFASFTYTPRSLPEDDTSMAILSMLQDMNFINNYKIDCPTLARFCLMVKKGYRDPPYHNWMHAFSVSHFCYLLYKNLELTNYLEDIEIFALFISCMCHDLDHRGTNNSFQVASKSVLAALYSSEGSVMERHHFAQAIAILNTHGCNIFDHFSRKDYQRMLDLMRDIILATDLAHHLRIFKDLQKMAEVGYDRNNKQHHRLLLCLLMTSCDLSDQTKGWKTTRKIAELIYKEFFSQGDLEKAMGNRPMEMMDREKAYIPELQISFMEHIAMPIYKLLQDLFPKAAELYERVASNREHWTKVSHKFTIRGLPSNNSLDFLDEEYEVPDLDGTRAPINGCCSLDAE

[10] = target: Dual specificity calcium/calmodulin-dependent 3',5'-cyclic nucleotide phosphodiesterase 1B (Homo sapiens, UniProt Q01064); assay: Inhibition of PDE1B (unknown origin)
Chain of Dual specificity calcium/calmodulin-dependent 3',5'-cyclic nucleotide phosphodiesterase 1B (Q01064 whole entry): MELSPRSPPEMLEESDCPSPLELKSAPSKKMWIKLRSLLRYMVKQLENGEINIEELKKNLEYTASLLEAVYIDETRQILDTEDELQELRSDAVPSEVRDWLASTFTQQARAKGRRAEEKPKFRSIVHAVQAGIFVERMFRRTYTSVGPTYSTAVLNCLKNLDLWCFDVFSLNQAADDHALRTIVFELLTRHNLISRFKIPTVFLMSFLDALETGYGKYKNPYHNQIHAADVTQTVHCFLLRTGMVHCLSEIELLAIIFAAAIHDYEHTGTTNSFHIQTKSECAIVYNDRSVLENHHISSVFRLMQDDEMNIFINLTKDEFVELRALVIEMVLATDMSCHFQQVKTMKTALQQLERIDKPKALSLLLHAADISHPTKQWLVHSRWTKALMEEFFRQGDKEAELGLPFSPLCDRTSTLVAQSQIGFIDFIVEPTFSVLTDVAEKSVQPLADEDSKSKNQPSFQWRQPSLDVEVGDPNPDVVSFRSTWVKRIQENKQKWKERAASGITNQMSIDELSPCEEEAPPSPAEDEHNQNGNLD

[11] = target: Dual specificity calcium/calmodulin-dependent 3',5'-cyclic nucleotide phosphodiesterase 1A (Homo sapiens, UniProt P54750); assay: Inhibition of human recombinant GST-tagged PDE1A
[12] = target: Dual specificity calcium/calmodulin-dependent 3',5'-cyclic nucleotide phosphodiesterase 1C (Homo sapiens, UniProt Q14123); assay: Inhibition of PDE1C (unknown origin)
Chain of Dual specificity calcium/calmodulin-dependent 3',5'-cyclic nucleotide phosphodiesterase 1C (Q14123 whole entry): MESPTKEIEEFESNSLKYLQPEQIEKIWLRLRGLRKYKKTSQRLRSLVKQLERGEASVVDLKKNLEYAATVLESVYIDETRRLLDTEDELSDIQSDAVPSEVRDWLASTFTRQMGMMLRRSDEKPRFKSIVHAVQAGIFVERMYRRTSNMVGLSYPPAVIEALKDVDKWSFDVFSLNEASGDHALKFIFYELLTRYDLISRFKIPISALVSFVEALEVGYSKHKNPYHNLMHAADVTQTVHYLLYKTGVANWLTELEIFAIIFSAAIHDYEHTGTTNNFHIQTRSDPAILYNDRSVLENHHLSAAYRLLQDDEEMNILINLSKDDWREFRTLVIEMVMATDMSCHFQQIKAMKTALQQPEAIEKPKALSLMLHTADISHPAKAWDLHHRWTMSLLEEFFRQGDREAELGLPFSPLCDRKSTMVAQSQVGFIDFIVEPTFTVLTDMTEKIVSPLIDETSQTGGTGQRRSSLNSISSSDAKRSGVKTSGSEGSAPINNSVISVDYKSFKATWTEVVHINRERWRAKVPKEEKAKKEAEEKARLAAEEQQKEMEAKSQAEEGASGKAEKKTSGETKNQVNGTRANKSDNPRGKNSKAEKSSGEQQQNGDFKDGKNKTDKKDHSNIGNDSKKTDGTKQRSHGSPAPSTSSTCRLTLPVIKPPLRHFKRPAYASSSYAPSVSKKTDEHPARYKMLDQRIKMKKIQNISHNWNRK

[13] = target: Glycogen synthase kinase-3 alpha (Homo sapiens, UniProt P49840); assay: Inhibition of GSK3alpha (unknown origin)
[14] = target: T3, High affinity cGMP-specific 3',5'-cyclic phosphodiesterase 9A; assay: Binding affinity to PDE9A (unknown origin) using [3H]cAMP as substrate assessed as inhibition constant incubated for 1 hr by […]
[15] = target: cGMP-inhibited 3',5'-cyclic phosphodiesterase 3B (Homo sapiens, UniProt Q13370); assay: Inhibition of human recombinant PDE3B using FAM-cyclic-3',5'-AMP as substrate incubated for 1 hrs by fluorescence polarization based assay
[16] = target: cGMP-inhibited 3',5'-cyclic phosphodiesterase 3A (Homo sapiens, UniProt Q14432); assay: Inhibition of PDE3A (unknown origin) using FAM-cAMP as substrate incubated for 45 mins by TR-FRET analysis
[17] = target: T1, cGMP-specific 3',5'-cyclic phosphodiesterase; assay: Inhibition of PDE5A1 (unknown origin) using [3H]-cGMP substrate incubated for 15 mins by liquid scintillation counting method

Chain of 3',5'-cyclic-AMP phosphodiesterase 4B (Q07343 whole entry): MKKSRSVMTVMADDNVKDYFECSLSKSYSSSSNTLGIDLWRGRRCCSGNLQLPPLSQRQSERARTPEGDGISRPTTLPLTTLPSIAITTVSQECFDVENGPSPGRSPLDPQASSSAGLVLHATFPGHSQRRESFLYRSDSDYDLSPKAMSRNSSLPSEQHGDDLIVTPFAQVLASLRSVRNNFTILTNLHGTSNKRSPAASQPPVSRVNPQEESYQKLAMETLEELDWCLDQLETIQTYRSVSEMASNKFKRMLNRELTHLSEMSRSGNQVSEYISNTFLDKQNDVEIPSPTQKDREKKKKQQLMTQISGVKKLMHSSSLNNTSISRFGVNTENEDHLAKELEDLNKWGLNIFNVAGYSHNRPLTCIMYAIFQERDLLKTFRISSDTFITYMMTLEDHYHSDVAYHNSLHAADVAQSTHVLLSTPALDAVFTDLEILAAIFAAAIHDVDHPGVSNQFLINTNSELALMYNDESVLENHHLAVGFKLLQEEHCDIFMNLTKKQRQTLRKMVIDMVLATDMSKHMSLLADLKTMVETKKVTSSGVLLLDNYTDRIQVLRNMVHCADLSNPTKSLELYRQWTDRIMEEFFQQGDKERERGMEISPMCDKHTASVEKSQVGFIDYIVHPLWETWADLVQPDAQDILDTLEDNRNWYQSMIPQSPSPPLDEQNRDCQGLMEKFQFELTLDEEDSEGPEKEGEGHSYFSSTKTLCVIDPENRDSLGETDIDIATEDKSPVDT

SMILES: CCCc1nc(C)c2c(=O)[nH]c(-c3cc(CC4CC(C(=O)NO)C4)ccc3OCC)nn12 (stereo unspecified)
- IC50 (Histone deacetylase 1): 208 nM

SMILES: O=C1[C@H]2Cc3c([nH]c4ccccc34)[C@@H](c3ccc4c(c3)OCO4)N2C(=O)CN1CCC1CCN(Cc2ccccc2)CC1
- IC50 (Acetylcholinesterase): 150 nM
- IC50 [2]: 0.15 nM

SMILES: Cc1ccc([N+](=O)[O-])cc1S(=O)(=O)N(C)C
- IC50 [3]: 150 nM
- IC50 [4]: 12100 nM

SMILES: O=C1[C@@H]2Cc3c([nH]c4ccccc34)[C@@H](c3ccc4c(c3)OCO4)N2C(=O)CN1CCC1CCN(Cc2ccccc2)CC1
- IC50 (Acetylcholinesterase): 1630 nM
- IC50 [2]: 1.63 nM

SMILES: COc1ccc([C@@H]2c3[nH]c4ccccc4c3C[C@H]3C(=O)N(CCC4CCN(Cc5ccccc5)CC4)CC(=O)N23)cc1
- IC50 (Acetylcholinesterase): 3200 nM
- IC50 [2]: 3.2 nM

SMILES: C[C@@H](NC(=O)/C=C/c1cccc(O)c1)c1nc2c(cnn2C2CCCC2)c(=O)[nH]1
- IC50 [6]: 58 nM

SMILES: CCc1cc(C#N)cc2c(NCc3ccc(OC)c(Cl)c3)c(COCCF)cnc12
- IC50 [2]: 33.4 nM

SMILES: COc1cc2ncnc(NCCc3c[nH]c4ccc(O)cc34)c2cc1OC
- IC50 [8]: 0.64 nM

SMILES: CCCCn1c(=O)n(CC)c(=O)c2[nH]c(-c3cccc(C(C)C)c3)cc21
- IC50 [6]: 38000 nM

SMILES: COc1ccc2c(N(C)[C@]3(C)CCO[C@H]3C)ncnc2c1OC
- IC50 [10]: 13.8 nM
- IC50 [11]: 57.5 nM
- IC50 [12]: 46.8 nM

SMILES: COc1ccc(CNc2c(COCCF)cnc3c(C4CC4)cc(C#N)cc23)cc1Cl
- IC50 [2]: 8 nM

SMILES: Cn1c(OC[C@H]2CC[C@H](C(F)(F)F)CC2)nn2c(C3CCOCC3)ncc2c1=O
- IC50 [10]: 43.9 nM
- IC50 [12]: 431 nM

SMILES: CC(C)=CCc1c2c(c3occ(-c4ccc(OS(C)(=O)=O)c(OS(C)(=O)=O)c4)c(=O)c3c1O)CCC(C)(C)O2
- IC50 [6]: 5.3 nM

SMILES: COC[C@H]1CC[C@H](Oc2nn3c(C4CCOCC4)ncc3c(=O)n2C)CC1
- IC50 [10]: 7.5 nM
- IC50 [12]: 86 nM

SMILES: O=C1CCc2cc(OCCCCc3nnnn3C3CCCCC3)ccc2N1 [CILOSTAZOL]
- IC50 [15]: 50 nM
- IC50 [16]: 27 nM

SMILES: Cn1c(=O)c2[nH]cnc2n(C)c1=O [THEOPHYLLINE ANHYDROUS]
- IC50 [7]: 280 nM

SMILES: CCOC(=O)C1=C[C@]2(CC)CCCN3CCc4c(n1c1ccccc41)[C@@H]32 [VINPOCETINE]
- IC50 [7]: 30000 nM

More lines, now with the values ahead:

- IC50 [1]: 95 nM
- IC50 (Phosphodiesterase 4): 30 nM
SMILES: O=C(Nc1ccccc1Cl)c1ccc(OC(F)F)c(OC2CCCC2)c1

- IC50 [1]: 144 nM
- IC50 (Phosphodiesterase 4): 90 nM
SMILES: O=C(Nc1ccccc1Cl)c1ccc(OC(F)F)c(OCC2CC2)c1

- IC50 [1]: 10.6 nM
SMILES: C=CCn1cc(-c2nc3ccccc3nc2Cl)c2cc(OC)ccc21

- IC50 [2]: 36 nM
SMILES: CC(C)CCn1c2c(c3c(O)cc(O)cc31)CCn1c-2nc2ccccc2c1=O

- IC50 (Histone deacetylase 1): 180 nM
SMILES: CCCc1nn(C)c2c(=O)[nH]c(-c3cc(Cc4ccc(C(=O)Nc5ccccc5N)cc4)ccc3OCC)nc12

- IC50 [5]: 9.5 nM
SMILES: O=c1c(/C=C/c2nc3cc(Cl)ccc3n2-c2ccccc2)coc2ccc(F)cc12

- IC50 [7]: 40 nM
SMILES: CC(C)(C)n1ncc2c(=O)n(Cc3cccc(F)c3)c(NCc3ccc(F)cn3)nc21

- IC50 [6]: 107 nM
SMILES: C[C@@H]1CC(Cc2ccc(C(=O)NO)cc2)C[C@H]1c1nc2c(cnn2C2CCCC2)c(=O)[nH]1 (stereo partly specified)

- IC50 [9]: 570 nM
SMILES: CC(c1cccc2ccccc12)n1cnc2c(=O)[nH]c(Cc3ccccc3)nc21 (stereo unspecified)

- IC50 [3]: 1150 nM
SMILES: COc1ccc(/C(CSc2nc3ccccc3c(=O)n2-c2ccccc2)=N\N)cc1

- IC50 [9]: 1.9 nM
SMILES: O=C(NCCc1ccccc1)c1cnn2c(=O)cc(-c3ccccc3)[nH]c12

- IC50 [3]: 1590 nM
- IC50 [13]: 880 nM
SMILES: c1ccc(-c2n/c(=N/CCN3CCOCC3)sn2-c2ccccc2)cc1

- Ki [14]: 1.53 nM
SMILES: CCCn1c(=O)c2[nH]c(-c3cccc(C(C)C)c3)cc2n(-c2ccc3c(c2)CNC3C(=O)OC)c1=O (stereo unspecified)

- IC50 [6]: 1.1 nM
SMILES: O=C1NC(=O)/C(=C/c2ccc(OCCNc3nc4c(cnn4C4CCCC4)c(=O)[nH]3)c(F)c2)S1

- IC50 [17]: 11 nM
SMILES: COc1cc2c(cc1OC)C(=O)C(CC1CCN(Cc3ccccc3)CC1)C2 (stereo unspecified) [DONEPEZIL]

- IC50 [7]: 50 nM
SMILES: CN1C(=O)c2c(nn(Cc3ccc(-c4cccc(F)n4)cc3)c2Nc2ccccc2)N2C1=N[C@@H]1CCC[C@@H]12 [LENRISPODUN]

Reference: ChEMBL document CHEMBL5608165, “Opportunities and perspectives of small molecular phosphodiesterase inhibitors in neurodegenerative diseases” (Eur J Med Chem, 2024)
